# Reference: patent publication US20150355456A1, “ELECTROWETTING FLUIDS” (MERCK PATENT GMBH, priority 2013, published 2015)
# Key:
# [1] = Solubility from absorbance of a filtered over-saturated dye sample; type: physicochemical; conditions: concentration extrapolated via calibration curve and Beer Lambert Law
# Protocol: (§1) a) Dye mixtures using the novel dyes are prepared to obtain neutral black samples that can be used in EWD. b) Solubility is measured by filtering an over-saturated sample of dissolved dye, measuring the resulting absorbance value, and extrapolating the concentration using a calibration curve and Beer Lambert Law (Absorbance=∈cl, where ∈ is the extinction coefficient of the material, calculated from a calibration curve, c is concentration, and l is the path length of the measurement). c) The absorbance is measured using a Hitachi U3310 spectrophotometer with a 5 micron path length under a single pass transmission measurement condition. d) The impact of the dye on the electrical properties is measured by comparing the dielectric constant of a series of formulations with increasing dye content. There is a linear relationship between dye concentration and dielectric constant, the gradient of which is indicative of the polarisability of the dye. This gradient value is denoted as an ‘alpha value’. A low alpha value indicates a smaller change in dielectric constant as dye concentration increases, and is desirable. High alpha values indicate that the dye has a large impact on the dielectric constant of the solvent, which will likely have a negative impact on the behaviour of the fluid in an electrowetting display pixel.
# [2] = Alpha value: gradient of dielectric constant against dye concentration (polarisability); type: physicochemical; conditions: gradient of dielectric constant vs dye concentration; low value desirable
# Protocol: as §1
# [3] = Extinction coefficient from calibration curve; type: physicochemical; conditions: extinction coefficient calculated from calibration curve
Structure (SMILES),Solubility % [1],melting point,Alpha value [2],εmax [3]
"CCCCCCCCCCCCCC1(C)Nc2cccc3c(/N=N/c4ccc(/N=N/c5ccc(CCCC)cc5)c5ccccc45)ccc(c23)N1 (stereo not shown) [Dye 1, 6-((E)-(4-((E)-(4-Butylphenyl)diazenyl)naphthalen-1-yl)diazenyl)-2-methyl-2-tridecyl-2,3-dihydro-1H-perimidine]",0.22%,79 to 81 °C,–,–
"CCCCCCCCCCCCCC1(C)N(CCCCCCCC)c2cccc3c(/N=N/c4ccc(/N=N/c5ccc(CCCC)cc5)c5ccccc45)ccc(c23)N1CCCCCCCC (stereo not shown) [Dye 2, 6-((E)-(4-((E)-(4-butylphenyl)diazenyl)naphthalen-1-yl)diazenyl)-2-methyl-1,3-dioctyl-2-tridecyl-2,3-dihydro-1H-perimidine]",19.53%,–,2.9360,40107
"CCCCc1ccc(/N=N/c2cc(OCC(CC)CCCC)c(/N=N/c3ccc(N(CC(CC)CCCC)CC(CC)CCCC)cc3C)cc2C)cc1 (stereo not shown) [Dye 14, 4-((E)-(4-((E)-(4-butylphenyl)diazenyl)-2-(2-ethylhexyloxy)-5-methylphenyl)diazenyl)-N,N-bis(2-ethylhexyl)-3-methylaniline]",28.66%,–,–,38954
